US11590092B2, “Skin probiotic” (The Regents of the University of California, priority 2014, dated 2023)
Values after ≈ are worked out from the molar mass of the structure shown.

Experiments:
[1] = Skin wound healing without USA300 inoculation; type: in vivo, ICR mice; details: topical 100 mM propionic acid vs PBS (pH 7.1) and PBS/pH (pH 3.5), 8-day period
Method: ICR mice (2-3-month-old female) were anesthetized by isoflurane. In each experiment, there were five mice per group. A wound 5 mm in length was made on the dorsal skin after shaving with electrical clippers. Once the skin wound was created, 5 μl of propionic acid (100 mM), PBS (pH 7.1) or PBS (pH 3.5) was applied topically to the wounded areas. The wounds were left uncovered throughout the experimental period. For bacterial infection, USA300 (2×10^6 CFU in PBS) was applied topically to the wounded areas 10 min after application of propionic acid or PBS. For the measurement of the extent of wound closure, a transparent parafilm was put on the top of the wounded skin. The wound area was marked on the parafilm by drawing an area which covered the whole skin wound. The lesion size was measured daily for 8 days was calculated using the ImageJ software [National Institutes of Health (NIH), Bethesda, Md., USA] and expressed as mm^2. Student's t-test was used to determine the significance of the differences between groups of the PBS (pH 7.1)- and propionic acid-treated mice as well as the PBS (pH 7.1)- and PBS (pH 3.5)-treated mice. Data represent the mean±SD from three independent experiments. All experiments using mice were conducted in a Biosafety Level 2 (BSL-2) facility and with accordance to institutional guidelines for animal experiments.

[2] = test system: S. aureus strains ATCC29247 and CMCC(B)26003; assay: Inhibition of other S. aureus strains; type: cell-based, Staphylococcus aureus
E. coli = assay: Radial diffusion assay against E. coli; type: cell-based, Escherichia coli
Method: (§1) A radial diffusion assay (RDA) was performed as follows. Briefly, microorganisms in the mid-log phase were centrifuged at 12,000×g for 10 min, washed with PBS, and dispersed (10^5 cfu/ml) in agar consisting of 1% (w/v) agarose (Sigma) and 3% (w/v) culture medium in PBS at 42° C. Then, the agar was poured into Petri dishes and solidified. Wells (diameter 3 mm and volume 30 μl) were created by poking a pipette tip into the semi-solidified agar. Propionic acid was serially diluted in PBS to concentrations ranging from 5 to 2,000 mM, and 30 μl aliquots were added to the wells; PBS served as the control. After 3 h of incubation, a 10 ml overlay gel composed of 3% culture medium and 1% agarose was poured onto the plates, where after the plates were incubated overnight and examined for zones of growth inhibition.

C. albicans = assay: Radial diffusion assay against C. albicans; type: cell-based, Candida albicans
Method: as §1

USA300 = assay: MBC assay against USA300; type: cell-based, Staphylococcus aureus
Method: To determine the MBC of propionic acid, USA300 (10^6 CFU/ml) were incubated with propionic acid at various concentrations (1.25-100 mM in PBS) as indicated in each individual experiment in media on a 96-well microplate (100 μl per well) overnight. The control received only PBS. After incubation, the bacteria were diluted 1:10-1:10^6 with PBS. […] To determine the pH effect on the bacterial growth, USA300 in TSB was incubated with 2.5 mM propionic acid on a 96-well microplate (100 μl per well) overnight before spotting on an agar plate.
To determine the minimal bactericidal concentration (MBC) and minimal fungicidal concentration (MFC) of propionic acid, microorganisms (10^6 colony forming units (cfu)/ml) were incubated overnight in media with propionic acid (1.25-2,000 mM) in a 96-well microplate (100 μl per well). The control only received PBS. After incubation, the microorganisms were diluted 1:10-1:10^6 into PBS. […]

P. acnes = assay: MBC test of propionic acid against P. acnes; type: cell-based, Propionibacterium acnes
Method: To determine the minimal bactericidal concentration (MBC) and minimal fungicidal concentration (MFC) of propionic acid, microorganisms (10^6 colony forming units (cfu)/ml) were incubated overnight in media with propionic acid (1.25-2,000 mM) in a 96-well microplate (100 μl per well). The control only received PBS. After incubation, the microorganisms were diluted 1:10-1:10^6 into PBS. The dilutions (5 μl) were spotted onto agar media to count cfu; MBC/MFC were determined at 99.9% killing level. To determine the effect of pH on growth of S. aureus USA300, the bacterium was incubated in TSB at pH 5.8 and 6.8, and TSB with 25 mM propionic acid at pH 5.8 and 6.8 (buffered with 4-(2-hydroxyethyl)-1-piperazineethanesulfonic acid (HEPES)) in a 96-well microplate overnight before spotting onto agar plates.

CCC(=O)O [propionic acid]
changes in lesion sizes of wounds without USA300 inoculation [1]: not statistically different
inhibition of S. aureus strains besides USA300 [2]: inhibit
minimum effective concentration for growth inhibition zones, E. coli (E. coli): 10 mM
minimum effective concentration for growth inhibition zones, C. albicans (C. albicans): 10 mM
antimicrobial activity against USA300 (USA300; 25 mM): excellent antimicrobial activity
bacterial numbers of USA300 (USA300; 25 mM propionic acid (pH 5.8), 24 h, USA300 10^6 CFU): 4.9±0.2×10^4 CFU/ml
antimicrobial activity against USA300 after buffering (USA300; 25 mM propionic acid (pH 6.8) buffered with ammonium hydroxide): remained
concentration that completely killed USA300 (USA300; MBC test): greater than or equal to 100 mM
concentration that effectively suppressed the growth of USA300 (USA300; MBC test, more than 1 log10 reduction): greater than 25 mM
concentration that completely killed USA300 (USA300; MBC test, listed as Propionic acid): greater than 100 mM
MBC (USA300; Staphylococcus aureus, in TSB, USA300 10^6 CFU/ml, overnight): 25 mM (≈ 1850 µg/mL)
concentration for a complete growth inhibition of USA300 (USA300; dissolved in 4% dimethyl sufoxide, overnight): 100 Mm
MBC (>1 log10 inhibition) against USA300 (USA300; dissolved in 4% dimethyl sufoxide, overnight, 0-100 mM): 25 mM
concentration at which growth inhibition of P. acnes was detectable (P. acnes; MBC tests, 5 to 2,000 mM tested): greater than 1000 mM
growth of P. acnes (P. acnes; propionic acid 25 mM): did not affect the growth
growth of P. acnes (P. acnes; propionic acid between 5 and 500 mM, MBC tests): did not affect the growth
